Consider eleven compounds from ChEMBL document CHEMBL1201862, “PubChem BioAssay data set” (2004).

Test systems include 786-0; A549; COLO 205; HCT-116; Hs-578T; IGROV-1; KM12; MDA-MB-435; NCI/ADR-RES; OVCAR-4; OVCAR-5; PC-3; RPMI-8226; RXF 393; SK-MEL-28; SK-MEL-5; SNB-75; TK-10; UACC-62; MDA-MB-231.
What all share (test): inhibition of tumour cell growth, NCI panel, 48 h

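Cultured in 96-well plates, cells were exposed to test compound for 48 hours across five concentrations. GI50 = concentration required for 50% inhibition of growth.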 Calls of active or inactive are those of the source. Rule as the data show it: active = GI50 up to about 1.1 µM and inactive = higher.

Regarding `CC(=O)Nc1oc(C)c(C)c1S(=O)(=O)c1ccc(Cl)cc1`, the GI50 with 786-0 was 98.9 µM (inactive); in the assay with A549, 52 µM (inactive); with COLO 205 it was 72.8 µM (inactive); in the assay on HCT-116, 55 µM (inactive); in the assay on Hs-578T it was 33.4 µM (inactive); in the assay on IGROV-1 it was 70 µM (inactive). Besides, the GI50 was 39.4 µM (inactive) in the assay with KM12; 33.5 µM (inactive) in the assay with MDA-MB-435; 36 µM (inactive) in the assay with NCI/ADR-RES; 39.1 µM (inactive) in the assay with OVCAR-4; > 100 µM (inactive) in the assay on OVCAR-5; 22.1 µM (inactive) in the assay on PC-3. Moreover, the GI50 in the assay with RPMI-8226 is 35.6 µM (inactive); in the assay on RXF 393, 69.7 µM (inactive); in the assay on SK-MEL-28, 95.3 µM (inactive); in the assay with SK-MEL-5, 27.8 µM (inactive); with SNB-75, 34.4 µM (inactive); with TK-10, 60.5 µM (inactive). In the assay on UACC-62, the GI50 was 42 µM (inactive).

For `CC(=O)N[C@@H](Cc1ccc(O)cn1)C(=O)NCc1ccc2c(c1)OCO2`, the GI50 in the assay on 786-0, in the assay on A549, in the assay with COLO 205, in the assay on HCT-116, in the assay with Hs-578T and in the assay with IGROV-1 was > 100 µM (inactive) each time. Moreover, the GI50 in the assay on KM12, with MDA-MB-435, with NCI/ADR-RES, in the assay with OVCAR-4, with OVCAR-5 and in the assay with PC-3 was > 100 µM (inactive) throughout. In addition, the GI50 with RPMI-8226, in the assay on RXF 393, with SK-MEL-28, in the assay with SK-MEL-5, in the assay on TK-10 and in the assay with UACC-62 was > 100 µM (inactive) throughout.

For the compound `COC(=O)[C@@H]1C[C@H]2[C@H](c3ccccc3Br)[C@@H](OC(C)=O)[C@@H](OCc3ccccc3)ON2O1`, the GI50 with 786-0 was > 100 µM (inactive); in the assay with A549, > 100 µM (inactive); in the assay on COLO 205 it was > 100 µM (inactive); with HCT-116 it was > 100 µM (inactive); with IGROV-1, 21.9 µM (inactive); with KM12, > 100 µM (inactive). The GI50 with MDA-MB-231, in the assay on MDA-MB-435, in the assay on NCI/ADR-RES, in the assay on OVCAR-4, in the assay on OVCAR-5 and in the assay on PC-3 was > 100 µM (inactive) throughout. For the same compound, the GI50 with RXF 393, in the assay with SK-MEL-28, in the assay on SK-MEL-5, in the assay with SNB-75, in the assay with TK-10 and with UACC-62 was > 100 µM (inactive) each time.

With `CCOC(=O)NC(=O)c1cn(CCCOC(=O)CCCCCCCCC(=O)OCCCn2cc(C(=O)NC(=O)OCC)c(=O)n(C)c2=O)c(=O)n(C)c1=O`, the GI50 in the assay on 786-0 was > 76.6 µM (inactive); in the assay on A549, > 100 µM (inactive); in the assay on COLO 205 it was > 100 µM (inactive); in the assay with HCT-116 it was > 100 µM (inactive); with Hs-578T, > 100 µM (inactive); in the assay on IGROV-1, > 100 µM (inactive). The GI50 in the assay with KM12, with MDA-MB-435, in the assay on NCI/ADR-RES, in the assay with OVCAR-4, with OVCAR-5 and in the assay with PC-3 was > 100 µM (inactive) in each case. For the same compound, the GI50 in the assay on RPMI-8226 is > 100 µM (inactive); with RXF 393, > 82.8 µM (inactive); in the assay with SK-MEL-28, > 100 µM (inactive); in the assay with SK-MEL-5 it was > 100 µM (inactive); with SNB-75, > 48.2 µM (inactive); in the assay on TK-10, > 86.5 µM (inactive). Moreover, the GI50 with UACC-62 is > 100 µM (inactive).

Turning to `NN/C(=N\S(=O)(=O)c1ccc(-c2ccccn2)s1)Nc1ccc(Cl)cc1`, the GI50 in the assay on 786-0 was 29.2 µM (inactive); in the assay on A549 it was 59 µM (inactive); with COLO 205, > 100 µM (inactive); in the assay with HCT-116 it was > 100 µM (inactive); in the assay with IGROV-1 it was > 100 µM (inactive); in the assay on KM12, > 100 µM (inactive). For the same compound, the GI50 in the assay with MDA-MB-231 was > 100 µM (inactive); in the assay on NCI/ADR-RES, > 100 µM (inactive); in the assay with OVCAR-4 it was 85.9 µM (inactive); with OVCAR-5, > 100 µM (inactive); with PC-3, > 100 µM (inactive); in the assay on RPMI-8226, > 100 µM (inactive). Further, the GI50 in the assay with RXF 393 was 30.5 µM (inactive); with SK-MEL-28, > 100 µM (inactive); in the assay on SK-MEL-5, > 100 µM (inactive); in the assay with SNB-75 it was 25.6 µM (inactive); in the assay on TK-10 it was > 100 µM (inactive); with UACC-62, > 100 µM (inactive).

For `OC1CC1Sc1ccccc1` (stereo not drawn), the GI50 in the assay on 786-0 is 21 µM (inactive); in the assay with A549, 34.6 µM (inactive); with COLO 205, 40.7 µM (inactive); with HCT-116 it was 22.5 µM (inactive); in the assay with IGROV-1, 23.7 µM (inactive); with KM12, 34 µM (inactive). Also, the GI50 with OVCAR-4 is 30.5 µM (inactive); in the assay on OVCAR-5, 95.3 µM (inactive); in the assay with RPMI-8226, 30.5 µM (inactive); in the assay on RXF 393, 25.2 µM (inactive); in the assay with SK-MEL-28 it was 22.1 µM (inactive); in the assay on SK-MEL-5, 31.6 µM (inactive). In addition, the GI50 in the assay with SNB-75 is 26.7 µM (inactive); with TK-10, 59.7 µM (inactive); with UACC-62, 33.3 µM (inactive).

For the compound `CCOC(=O)[C@H]1Nc2ccc(OC)cc2C2c3ccccc3CC21` (stereo partly drawn), the GI50 in the assay on 786-0, with A549, with COLO 205, with HCT-116, with IGROV-1 and with KM12 was > 100 µM (inactive) throughout. In addition, the GI50 with OVCAR-4 was > 100 µM (inactive); in the assay on OVCAR-5 it was > 100 µM (inactive); in the assay with RPMI-8226, > 100 µM (inactive); with RXF 393 it was 37.5 µM (inactive); in the assay on SK-MEL-28 it was > 100 µM (inactive); in the assay with SK-MEL-5, > 100 µM (inactive). In addition, the GI50 in the assay with SNB-75 is 83.9 µM (inactive); with TK-10, > 100 µM (inactive); in the assay on UACC-62, > 100 µM (inactive).

As for `COc1cc(C2C(Cl)C(=O)N2c2c(C)n(C)n(-c3ccccc3)c2=O)ccc1O` (stereo not drawn), the GI50 in the assay with 786-0 is 11.9 µM (inactive); with A549, 26.2 µM (inactive); in the assay on COLO 205 it was 16.3 µM (inactive); in the assay with HCT-116, 6.37 µM (inactive); in the assay on IGROV-1, 14.1 µM (inactive); with KM12, 17.7 µM (inactive). Also, the GI50 in the assay on MDA-MB-231 was 22.1 µM (inactive); with MDA-MB-435, 16.4 µM (inactive); in the assay with NCI/ADR-RES it was 30.3 µM (inactive); in the assay with OVCAR-4 it was 16.5 µM (inactive); with OVCAR-5 it was 21.5 µM (inactive); in the assay on PC-3, 28.8 µM (inactive). Further, the GI50 was 18.1 µM (inactive) in the assay with RPMI-8226; 18.1 µM (inactive) with RXF 393; 23.2 µM (inactive) with SK-MEL-5; 24.7 µM (inactive) in the assay with TK-10; 16 µM (inactive) in the assay with UACC-62.

For the compound `CN(C)c1ccc(/C=C2\C=Cc3ccccc32)cc1`, the GI50 is 61 µM (inactive) in the assay on 786-0; 76.6 µM (inactive) with A549; 58.6 µM (inactive) in the assay on COLO 205; 33.1 µM (inactive) with HCT-116; 53.7 µM (inactive) with IGROV-1; 49.7 µM (inactive) with KM12. In addition, the GI50 in the assay with OVCAR-4 was 50.5 µM (inactive); in the assay on OVCAR-5 it was > 100 µM (inactive); in the assay with RPMI-8226, 35.3 µM (inactive); in the assay with RXF 393, 17.9 µM (inactive); with SK-MEL-28, 43.6 µM (inactive); with SK-MEL-5 it was 36.3 µM (inactive). For the same compound, the GI50 is 11.3 µM (inactive) in the assay on SNB-75, > 100 µM (inactive) with TK-10 and 42.3 µM (inactive) with UACC-62.

Take `C/C(=N\NC(=N)N)C(CN1CCOCC1)C(c1ccccc1)c1c(O)c2ccccc2oc1=O` (stereo not drawn): the GI50 was > 100 µM (inactive) in the assay on 786-0; > 100 µM (inactive) in the assay with A549; 49.4 µM (inactive) with COLO 205; 90.6 µM (inactive) in the assay with HCT-116; > 100 µM (inactive) in the assay with IGROV-1; > 100 µM (inactive) with KM12. The GI50 was 61.9 µM (inactive) with OVCAR-4; > 100 µM (inactive) in the assay on OVCAR-5; 85.9 µM (inactive) in the assay with RPMI-8226; 29 µM (inactive) with RXF 393; > 100 µM (inactive) with SK-MEL-28; > 100 µM (inactive) in the assay on SK-MEL-5. The GI50 is 24.9 µM (inactive) with SNB-75, > 100 µM (inactive) in the assay on TK-10 and 81.3 µM (inactive) with UACC-62.

With `COc1cc(C2c3cc4c(cc3[C@@H](Nc3cccc(O)c3)C3COC(=O)[C@H]23)OCO4)cc(OC)c1O` (stereo partly drawn), the GI50 was 2.07 µM (inactive) with 786-0; 0.439 µM (active) in the assay on A549; 6.17 µM (inactive) with COLO 205; 1.76 µM (inactive) with HCT-116; 3.98 µM (inactive) in the assay with IGROV-1; 3.31 µM (inactive) with KM12. Moreover, the GI50 was 5.42 µM (inactive) with MDA-MB-231; 2.95 µM (inactive) with MDA-MB-435; 1.4 µM (inactive) in the assay with NCI/ADR-RES; 12.2 µM (inactive) in the assay with OVCAR-4; 8.26 µM (inactive) in the assay on OVCAR-5; 2.14 µM (inactive) in the assay with PC-3. For the same compound, the GI50 in the assay with RPMI-8226 was 0.948 µM (active); in the assay on RXF 393, 1.44 µM (inactive); with SK-MEL-28 it was 2.81 µM (inactive); in the assay with SK-MEL-5, 1.7 µM (inactive); with SNB-75, 2.38 µM (inactive); in the assay on TK-10 it was 4.51 µM (inactive). Also, in the assay with UACC-62, the GI50 was 1.2 µM (inactive).
